Source: US20180028520A1, “METHODS AND PHARMACEUTICAL COMPOSITIONS FOR TREATMENT OF AMYOTROPHIC LATERAL SCLEROSIS” (priority 2014, published 2018)

Tests used:
[1] = test system: brain slices derived from a mouse model of tauopathy; conditions: inhibition of PLDs; cited from earlier work
ALS iPS-MNs = assay: AIS (axon initial segment) length by ankyrin G immunostaining; format: cell-based, human; conditions: data not shown

Compound	effect on insoluble tau aggregates [1]	effect on shortening of the AIS (ALS iPS-MNs)
O=C(NCCN1CCC(n2c(=O)[nH]c3ccccc32)CC1)c1cc2cc(F)ccc2[nH]1 [FIPI, 5-fluoro-2-indolyl des-chlorohalopemide]	increased insoluble tau aggregates	–
C=C(C)[C@H]1CN[C@H](C(=O)O)[C@H]1CC(=O)O [kainate, kainic acid]	–	further exacerbated
